Tests used:
SK-N-BE(2) cells [1] = assay: Infinium Methylation EPIC array, locus-specific DNA methylation; type: cell-based
Protocol: DNA microarray analysis. DNA extraction was carried out with samples were extracted by using PureLink™ Genomic DNA Mini Kit (Gibco, K182001), according to the protocol provided by the supplier. The DNA was quantified with the Nanodrop and 3 ug was used for bisulfite modification using the EZ DNA methylation kit (D5001, Zymo Research, Orange, CA) according to the protocol provided with the modification step according to the recommendations for array processing of the samples. Control PCR reactions were carried out before array analysis to confirm successful modification of the DNA. The bisulfite-modified DNA (500 ng) was applied to the Infinium MethylationEPIC array (Illumina). After bisulfite treatment of the DNA samples, the cytosines in the CpG sites were genotyped as C/T polymorphisms according to the manufacturer's protocol. Raw array data was collected with 866 k probes for 8 samples across 4 stages (those are control, 5 hours, 24 hours and 48 hours). The fluorescence signals were measured from the BeadArrays using an Illumina BeadStation GX scanner.
The fluorescence data were then analyzed using the GenomeStudio software (Illumina). The software assigns a score called a “b value” to each CpG site, which corresponds to the ratio between the fluorescence signal of the methylated allele (C) and the sum of the fluorescent signals of the methylated (C) and unmethylated (T) alleles. The data generated by the BeadStudio software was exported and further analyses were performed in the R programming environment. Then a detection p-value for every probe in every sample, representing the quality of the signal is generated using method minfi. Poor probes with all samples' p-values larger than or equal to 0.01 are removed which results in 864 k probes left. For methylation levels estimations we use M-Values (log 2 based Methylation signal over unmethylation signal) for analysis.
Differential Methylation Probes are identified by first standardizing M-Values with both rows and columns and then enforced certain direction (hypermethylated or hypomethylated) between control versus treatments. The p-values used in the volcano plot is calculated through Fisher' method by combining quality p-value for all samples with each probe.

NB16 cells = assay: Western blot of β-catenin and p53; type: cell-based; settings: NB16, 1 μM NEN 24 and 48 hrs
Protocol: (§1) Protein extraction and immunoblot. Cells were washed with ice-cold PBS buffer (Invitrogen, 20012050) and lysed with harvest buffer (10 mM Hepes pH 7.9, 50 mM NaCl, 500 mM sucrose, 0.1 mM EDTA and 0.5% Trition X-100) supplemented with 1% Halt inhibitors (Thermo Scientific™, 78443) for 10 minutes. Cell lysate was centrifuged at 3000 rpm for 3 min at 4° C. The supernatant containing cytosolic proteins was transferred to a different tube. The pellet containing nuclear proteins was dissolved with nuclear lysis buffer (10 mM Hepes pH 7.9, 0.5M NaCl, 0.1 mM EDTA, 0.1 mM EGTA and 0.1% NP40) supplemented with 1% Halt inhibitors (Thermo Scientific™, 78443) for 5 minutes at 4° C. Then the solution was sonicated at 4° C. for 6 cycles (1 cycle=30 s sonication and 30 s cooldown with “High” energy intensity) using a Bioruptor® Plus sonication (Diagenode, UCD-300). After sonication, the solution was centrifuged at 15,000 rpm for 10 minutes. The supernatant was kept as nuclear extraction. Protein concentration was determined by BCA assay (Thermo Scientific, 23227). 5 μg nuclear proteins or 7.5 μg cytosolic proteins were boiled in loading buffer with reducing reagents (Invitrogen, NuPAGE™ LDS Sample Buffer (4X), NP0007), then separated with SDS-PAGE (Nupage™ 4-12% Bis-Tris Protein Gels, 1.0 mm, Invitrogen™, NP0322BOX). Protein was transferred onto a nitrocellulose membrane (Thermo Scientific™, 88018). After blocking in 5% non-fat milk for 30 minutes at room temperature (RT), the primary antibody was added for incubation overnight at 4° C. After washing with TBST (CST, #9997, 1:10 diluted by deionized water) for 3 times, HRP-conjugated secondary antibodies were applied. Signals were detected with an ECL kit (Thermo Scientific™, 34577) by using BioRad Universal Hood II.

SK-N-BE(2) cells [2] = assay: Western blot of β-catenin and p53; type: cell-based; settings: 1 μM NEN 24 and 48 hrs
Protocol: as §1

[3] = test system: orthotopic neuroblastoma xenograft (SK-N-BE(2) cells); assay: Orthotopic neuroblastoma xenograft model, tumor growth by ultrasound; type: in vivo, mice; settings: diet 2000 ppm NEN (n=4) vs control group (n=6)
Protocol: Mouse orthotopic neuroblastoma model. All mouse procedures were performed in accordance with Stanford University recommendations for the care and use of animals and were maintained and handled under protocols approved by the Institutional Animal Care and Use Committee. All procedures were performed with female NC nude mice (Taconic, Hudson, NY, USA) at 7 weeks of age. Procedures and ultrasound measurements (see below) were performed under general anesthesia using isoflurane inhalation. Orthotopic tumors within the adrenal gland were created as described before 16. Briefly, a transverse incision was made on the left flank to locate the left adrenal gland, and […] of phosphate buffered saline (PBS) containing […] SK-N-BE(2) cells were injected into the adrenal gland using a 30 G needle. Fascia and skin were closed in separate layers. Tumor formation was monitored by non-invasive ultrasound measurements, and the animals euthanized when the tumor volume exceeded 1,000 mm^3. Monitoring tumor growth with high frequency ultrasound. After securing the mouse in a prone position, a Visual Sonics Vevo 2100 sonographic probe (Toronto, Ontario, Canada) was applied to the left flank to locate the left adrenal gland and the tumor. […] The tumor volume was measured using the 3-D reconstruction tool (Vevo Software v1.6.0, Toronto, Ontario, Canada).

[4] = test system: RA-resistant neuroblastoma cells; assay: Clonogenic assay; type: cell-based; settings: 1 μM NEN with 1 μM RA, two weeks
Protocol: For the clonogenic assay, 500 cells were plated in 60 mm dishes. After 24 h, cells were treated with indicated conditions. After 14 days, the cells were fixed by 50% methanol in PBS for 15 minutes and stained by crystal violet staining solution (0.5% crystal violet and 25% methanol in PBS). The quantification was done by using countPHICS.

Structure (SMILES): O=C(Nc1ccc([N+](=O)[O-])cc1Cl)c1cc(Cl)ccc1O [NEN, 5-chloro-N-(2-chloro-4-nitrophenyl)-2-hydroxybenzamide compound with 2-aminoethanol (1:1)]
- differentially methylated sites close to transcription start sites (TSS200, 1st exon) (SK-N-BE(2) cells [1]; 1 μM NEN 24 or 48 hours): more hypomethylated sites than hypermethylated sites
- differentially methylated sites in 'shelf' and 'shore' regions (vs CpG islands) (SK-N-BE(2) cells [1]; 1 μM NEN 24 or 48 hours): opposite trend
- differentially methylated sites in CpG islands (SK-N-BE(2) cells [1]; 1 μM NEN 24 or 48 hours): more hypo-methylated sites than hyper-methylated sites
- differentially methylated sites in the gene body and 3′ UTR region (SK-N-BE(2) cells [1]; 1 μM NEN 24 or 48 hours): more hypermethylated sites than hypomethylated sites
- DNA methylation levels of CpG sites in the promoter region of p53 and CTNNBIP1 (SK-N-BE(2) cells [1]; 1 μM NEN 24 h): upregulated/downregulated
- expression of p53 (NB16 cells): increased
- expression of β-catenin (nuclear protein) (NB16 cells): reduced
- expression of p53 (SK-N-BE(2) cells [2]): increased
- expression of β-catenin (nuclear protein) (SK-N-BE(2) cells [2]): reduced
- tumor growth [3]: significantly slowed
- inhibition of clonogenicity, NEN with RA [4]: strong synergistic effect

Source: US11918550B2, “Sensitization of cancer cells to differentiation therapy with mitochondrial uncoupler niclosamide ethanolamine” (The Board of Trustees of the Leland Stanford Junior …, priority 2020, dated 2024)
